# Results taken from patent publication US20140161767A1, “FOLLICLE-STIMULATING HORMONE (FSH)/LYTIC DOMAIN FUSION CONSTRUCTS AND METHODS OF MAKING AND USING SAME” (BOARD OF SUPERVISORS OF LOUISIANA STATE UNIVERSITY AND …, priority 2012, published 2014).
# Legend:
# OVCAR-3 = test: Cell viability after 4 hours (Cell Titer Glo), OVCAR-3; format: cell-based, human; conditions: 4 h incubation; read-out: Activities [μM] OVCAR-3 (p41)
# Method: (§1) Human ovarian cancer cell lines OVCAR-3 (p 41), SKOV-3 (p 35) and the human uterine sarcoma cell line MES-SA-Dx5 (p 61) (multi-drug resistant clone), the human pancreatic cancer cell line Panc-1 (passage number 18), and human triple negative breast cancer cell line MDA-MB-231 (passage number 47) were grown in ATCC recommended medium, 10% fetal bovine serum, 100 IU/ml penicillin, 100 microg/ml streptomycin. Cells were typically seeded (2,000 cells per well) into 96 well plates and media was replaced after 48 hours of incubation. […] Each Phor-18-hFSH-β81-89 conjugate provided in lyophilized form was dissolved in saline and added to cells. The duration of incubation was 4 hours at 37° C. Cell viability was assessed after 4 hours using a luminometric assays (Promega, Cell Titer Glo, G755B, lot #00000031421). Controls contained saline or 0.1% triton as reference for 0 and 100% cell death, respectively.
# (§2) Data were processed and analyzed using GraphPad Prism version 5.00 for Windows, GraphPad Software, San Diego Calif. USA, www.graphpad.com”. Statistical analysis for significance was determined by a two-tailed Student's T-test. Each study was conducted to achieve an N of at least 6.
# (§3) In vitro activities were expressed as IC50 values for each cell line, time point and compound tested that were calculated using the Hill equation (Graph Pad Prizm software).
# Panc-1 = test: Cell viability after 4 hours (Cell Titer Glo), Panc-1; format: cell-based, human; conditions: 4 h incubation; read-out: Activities [μM] Panc1 (p18)
# Method: as §1, §2, §3
# MDA-MB-231 = test: Cell viability after 4 hours (Cell Titer Glo), MDA-MB-231; format: cell-based, human; conditions: 4 h incubation; read-out: Activities [μM] MDA-MB-231 (p47)
# Method: as §1, §2, §3
# MDA-MB-435S.luc cells = test: Cell toxicity screening (MTT assay) in MDA-MB-435S.luc breast cancer cells; format: cell-based, human
# Excerpt: This example describes screening for cell toxicity (IC50) and hemolytic activity using a human breast cancer cell line.
# Eighteen βCG-ala and eight LHRH conjugated fusion constructs were studied and compared to Phor21-βCG-ala and unconjugated Phor21 and Phor 18 (338913)=CLIP71 peptides. The human breast cancer cell line MDA-MB-435S.luc, which over expresses chorionic gonadotrophin (CG) and luteinizing hormone-releasing hormone (LHRH) receptors, was used to screen at passage numbers 248-252. The MDA-MB-435S.luc cell line was constructed from the MDA-MB-435S cell line obtained from the American Type Cell Culture Collection by stable transfection with the plasmid PRC/CMV-luc containing the Photinus pyralis luciferase gene and an […] by lipofection. The stably transfected cell line was selected using G418 and the clones with the highest expression for the luciferase gene were tested for their LH and LHRH receptor expression.
# MDA-MB-435S.luc cells were grown in Leibovitz's L 15 medium, 10% fetal bovine serum, 0.01 mg/ml bovine insulin, 100 IU/ml penicillin, 100 microg/ml streptomycin. The cells were cultured in tight closed flasks. […]
# Data were processed and analyzed using Graph Pad Prizm 4™ software (Graph Pad Prizm, Inc). Statistical analysis for significance was determined by a two-tailed Student's T-test. […]
# [1] = system: MDA-MB-435S.luc xenograft; test: Mouse xenograft model of breast cancer, LHRH fusion constructs; format: in vivo, mice
# Method: For LHRH fusion constructs, the mouse xenograft model for breast cancer was used. In brief, Nu/Nu female mice, outbred strain, age 5 weeks (Charles River) were injected subcutaneously with a MDA-MB-435S.luc/Matrigel suspension (1×10^6 cells). Treatment was started on day 21 after tumor cell injection and continued on day 26 and 29. The doses for weekly fusion construct injections were 2, 0.2 and 0.02 mg/kg body weight, given as a bolus single injection. All mice were necropsied 34 days after tumor cell injection—baseline values for tumor weights were obtained by sacrificing 8 mice at treatment start. Primary tumors, liver, kidney, pancreas, heart, lung, and spleen were collected and prepared for histological evaluation in formalin. Tumor weights were recorded at necropsy, part of the tumors were frozen at −80° C. for luciferase assay determination.
# Characteristics of tumors at necropsy are summarized in FIG. 10: (A) tumor weight, (B) changes of tumor weights compared to baseline, (C) total number of live tumor cells, (D) changes of total live tumor cells compared to baseline, and (E) bodyweights at baseline and necropsy. Viability of tumor cells was determined at the end of the study when tumors were measured for luciferase activity. Treatment efficacy was calculated as difference between measurements at the beginning of treatment compared to the measurement at the end of study (FIGS. 10B and 10D).
# MDA-MB-435S xenograft = test: MDA-MB-435S xenograft, multiple dose regimen; format: in vivo, mice; conditions: 0.002 and 0.2 mg/kg
# Method: In order to determine the minimal effective dose necessary to reduce MDA-MB-435S xenograft weights in a multiple dose regimen, Nu/Nu female mice, outbred strain, age 8 weeks (Charles River), were injected (s.c.) into the interscapular region with a MDA-MB-435S (passage #253)/Matrigel suspension (2×10^6 cells/mouse) as previously described above. […] The doses were given as a single bolus intravenous injection via lateral tail vein on days 15, 16, 17, 20, 21, 22, 23, 27, 28, 29, 30, 33, 34, 35, 36, 37, 38, 40, 41, 42 after tumor cell inoculation. Saline injections served as control groups.
# Each treatment group consisted of 16 mice. During the entire study tumor volumes were recorded twice weekly. Final necropsy was conducted on day 45 after tumor cell injection. […] due to occlusion of the tail vein in most mice. At study endpoint body weight, tumor weights were determined and fixed in phosphate buffered 10% formalin.
Substance,IC50 (OVCAR-3),IC50 (Panc-1),IC50 (MDA-MB-231),fold more potent (toxic) than Phor21-βCG-ala (MDA-MB-435S.luc cells),"Concentrations resulting in tumor weights similar to baseline ([1]; mouse, in vivo)","In vivo tumor efficacy compared to reference Phor21-βCG-ala (tumor weight, viable tumor cells) ([1]; mouse, in vivo)",Tumor volume after 30 days compared to baseline ([1]; p<0.01),Tumor response (MDA-MB-435S xenograft),Histological examination of tumors (MDA-MB-435S xenograft; H&E)
KFAKFAK KFAKFAK KFAK [Phor18],20.5 ± 5.1 µM,18.9 ± 0.2 µM,18.9 ± 0.8 µM,–,–,–,–,–,–
KFAKFAKKFAKFAKKFAKQHWSYGLRPG [Phor18-LHRH],–,–,–,2 fold,0.2 mg/kg,Equally effective,smallest tumor volumes,tumor regression,eradication of tumor cells
